Reference: article PMC8703873, “Structure and Activity of a Selective Antibiofilm Peptide SK-24 Derived from the NMR Structure of Human Cathelicidin LL-37” (Pharmaceuticals, 2021)
No end group written: not given here.

What was measured:
S. aureus USA300 LAC [1] = assay: Membrane permeabilization (propidium iodide); format: cell-based, Staphylococcus aureus; conditions: peptide 8 µM; propidium iodide fluorescence, 2 h, PBS, 37 °C
Description: (§1) Membrane permeabilization was evaluated as described. In brief, bacteria were inoculated and grown overnight. A second inoculation was made and let bacteria grow to the exponential phase. Bacteria were then spun, washed, and resuspended in the same volume of PBS. A series of peptide solutions (10×) was made via two-fold dilution in a 96-well plate (10 µL each). All wells were aliquoted with 2 µL of propidium iodide (20 µM), followed by adding 88 µL of S. aureus USA300 or A. baumannii B28-16 (OD600 ~0.11 in PBS). The plate was incubated at 37 °C with continuous shaking at 100 rpm in a FLUOstar Omega microplate reader (BMG Labtech Inc., Cary, NC, USA). Fluorescence was recorded every 5 min for 2 h with excitation and emission wavelengths of 485 and 620 nm. The data were analyzed by the vendor’s software using averaged values from duplicated experiments.

P. aeruginosa E411-17 = format: cell-based, Pseudomonas aeruginosa; conditions: E411-17
Description: (§2) The antibiotic-resistant pathogens used in this study include the Gram-positive bacteria Enterococcus faecium V286-17 and Staphylococcus aureus USA300 LAC and the Gram-negative bacteria Klebsiella pneumoniae E406-17, Acinetobacter baumannii B28-16, Pseudomonas aeruginosa E411-17, and Escherichia coli E423-17. All bacteria were cultivated in tryptic soy broth (TSB) at 37 °C, 220 rpm.
(§3) The antibacterial activity of peptides was evaluated using a standard broth microdilution protocol with minor modifications. In brief, peptides were made at various concentrations, 10 μL per well in a 96-well polystyrene microplate. Logarithmic phase bacterial cultures (i.e., optical density (OD) at 600 nm ≈ 0.5) were diluted to 0.001 OD, and aliquots of 90 μL were added to each well. Untreated bacterial culture and medium were included as positive and negative controls, respectively. Plates were incubated at 37 °C overnight and read at 630 nm using a ChroMate Microplate Reader (Awareness Technology, Palm City, FL, USA). […] Our previously designed peptide 17BIPHE2 [32] was included as a positive control, and RI-10, a peptide without antibacterial activity in rich media, was utilized as a negative control.

E. faecium V284-17 = format: cell-based, Enterococcus faecium; conditions: V284-17
A. baumannii B28-16 [2] = assay: Membrane permeabilization (propidium iodide); format: cell-based, Acinetobacter baumannii; conditions: peptide 16 µM; propidium iodide fluorescence, 2 h, PBS, 37 °C
Description: as §1

[3] = HPLC retention time (measure of peptide hydrophobicity); format: physicochemical; conditions: chromatographic, Waters C8 symmetry hydrophobic column, as described in ref 34; used as indicator of peptide hydrophobicity
From the text: In the membrane-bound LL-37 structure determined by 3D NMR spectroscopy, a hydrophobic gap exists (Figure 1A). The location of a hydrophilic S9 on the hydrophobic surface of LL-37 splits the long helix into two hydrophobic domains (gold sticks). The SK-24 peptide we identified here corresponds to the long hydrophobic domain [26]. The amino acid sequence of SK-24, along with LL-37 and its derived antimicrobial peptides, is depicted in Figure 1B. Peptide parameters, including net charge, hydrophobic content, Boman index, GRAVY, hydrophobicity, and hydrophobic moment of each peptide, were calculated using online tools, such as the APD [8] and HeliQuest (Table 1). Except for the shortest RI-10 (net charge +3), LL-37 and its other derived peptides have net charges +5 or +6, above the average net charge (+3.3) of natural antimicrobial peptides registered in the APD [8, 35, 36]. Overall, the hydrophobic percentages (Pho) of these peptides calculated in the APD are proportional to the hydrophobicity and hydrophobic moment calculated by HeliQuest in Table 1. Of note, LL-37 has the highest net charge (+6) and Boman index but the lowest Pho%, GRAVY, and hydrophobic moment.
All peptides were chemically synthesized and purified to >95% (Genemed Synthesis, San Antonio, TX, USA). The quality of each peptide was determined based on mass spectrometry (MS) and high-performance liquid chromatography (HPLC). Peptide stock solutions were freshly made by solubilizing in autoclaved distilled water, and their concentrations were quantitated using UV spectroscopy based on the absorbance difference at 215 and 225 nm as described. Peptide retention time was measured on a Waters C8 symmetry hydrophobic column as described. Other chemicals were purchased from Sigma (St. Louis, MO, USA) unless specified.

[4] = system: clinical and antibiotic-resistant pathogens (panel of Table 3); format: cell-based; conditions: all pathogens of Table 3; peptide 32 µM
Description: as §2, §3

A. baumannii B28-16 [5] = format: cell-based, Acinetobacter baumannii
Description: as §2, §3

[6] = system: A. baumannii B28-16 preformed biofilms; assay: Disruption of preformed biofilms (XTT); format: cell-based, Acinetobacter baumannii; conditions: biofilms formed for 24, 48 and 72 h, peptide at 8, 16, 32 or 64 μM for 24 h
Description: The antibiofilm activities of peptides against the preformed biofilms of A. baumannii B28-16 and S. aureus USA300 LAC were evaluated as follows. Bacteria in the logarithmic growth phase were adjusted to a cell density of 10^5 colony forming unit (CFU)/mL. Two hundred microliter cells were seeded into each well of the 96-well plates. The plates were incubated at 37 °C to allow for the formation of biofilm for 24, 48, and 72 h, respectively. The planktonic cells were then removed, followed by a wash. The biofilms were then treated with 20 µL of 10× two-fold diluted peptides and 180 µL of fresh TSB media for 24 h at 37 °C. Cultures treated with water without peptide served as the positive control, and media treated with water was used as the negative control. To quantify the antibiofilm activity of the peptides, the XTT [2, 3-bis (2-methyloxy-4-nitro-5-sulfophenyl)-2H-tertazolium-5-carboxanilide] assay staining method was used to quantitate the live cells. Absorbance was read at 450 nm using a ChroMate microliter plate reader. The percentage biofilm growth for the peptide was plotted by assuming 100% biofilm growth in untreated bacterial control wells. Data were represented as mean ± standard deviation (SD). The data are statistically significant at p < 0.05. Plots were generated using GraphPad Prism v7 (GraphPad Software, San Diego, CA, USA).

S. aureus USA300 = format: cell-based, Staphylococcus aureus
Description: as §2, §3

[7] = system: S. aureus USA300 LAC preformed biofilms; conditions: S. aureus USA300 LAC and other clinical strains (USA200, USA400, Mu50); cited from earlier work
Description: Here, we compared the antibiofilm activity of SK-24 with that of GF-17, GI-20, and 17BIPHE2 against the 24 h preformed biofilms of S. aureus USA300. […] Only SK-24 a ...

S. aureus USA300 LAC [8] = assay: Membrane depolarization (DiBAC4(3)); format: cell-based, Staphylococcus aureus; conditions: peptide 8 µM; similar trends at 16 and 32 µM; DiBAC4(3) fluorescence
Description: The experiment was conducted as described. In brief, an overnight culture of S. aureus USA300 LAC was subcultured in a fresh TSB medium and grown to the exponential phase. Cells were spun using centrifugation and washed twice with PBS, and resuspended in twice the volume of PBS containing 25 mM glucose and incubated at 37 °C for 15 min. For membrane depolarization measurements, 500 nM (final concentration) of the dye DiBAC4 (3) (bis-(1,3- dibutylbarbituric acid) trimethine oxonol) (AnaSpec, San Jose, CA, USA) was added and vortexed gently. Aliquots of 90 μL of the energized bacteria solution were loaded to the wells, and the plate was fed into a FLUOstar Omega microplate reader. Fluorescence was read for 20 min at excitation and emission wavelengths of 485 and 520 nm, respectively, to get dye normalization. Then 10 μL of diluted peptide solutions were added and gently mixed. Fluorescence readings were recorded for 40 min, where Triton X-100 (0.1%) was used as a positive control.

K. pneumoniae E406-17 = format: cell-based, Klebsiella pneumoniae; conditions: E406-17
Description: as §2, §3

E. coli E423-17 = format: cell-based, Escherichia coli
Description: as §2, §3

## RIVQRIKDFL-NH2 [RI-10]
S. aureus USA300 LAC [1]
  Membrane permeation: some membrane permeation
P. aeruginosa E411-17
  MIC: >32 µM
E. faecium V284-17
  MIC: >32 µM
A. baumannii B28-16 [2]
  Membrane permeation: some membrane permeation
[3]
  tHPLC (HPLC retention time): 8.831 min
[4]
  Inhibitory activity at 32 µM: did not show any inhibitory activity
A. baumannii B28-16 [5]
  MIC: >32 µM
[6]
  Disruption of preformed biofilms: unable to disrupt
S. aureus USA300
  MIC: >32 µM
[7]
  Disruption of 24 h preformed biofilms (words, found previously): neither LL-37 nor RI-10 was able to disrupt
S. aureus USA300 LAC [8]
  Membrane depolarization ability (order, words): unable to produce a similar effect
K. pneumoniae E406-17
  MIC: >32 µM
E. coli E423-17
  MIC: >32 µM
